As a reminder, the AC50 is the midpoint of the concentration-response curve, whichever way the signal moves. In general, EC50 refers to the concentration giving half of the maximal effect. By IC50 is commonly meant the concentration that inhibits the measured activity by half.

The results in this text go back to ChEMBL document CHEMBL1201862, “PubChem BioAssay data set” (2004).

Activity calls are given as the source filed them.

The test system of one assay is HEK293. Nature of the assay: EBV LMP1 TES2 canonical NF-kB signalling blockers – cell-based, HEK293, luciferase, cherry-pick, dose response (AID 588343). In kind it is functional. As to conditions: Homo sapiens.
The next assay relates to INS1. Nature of the assay: INS-1E survival protection against cytokine death – cell-based, luminescence, retest, dose response (AID 449756).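 Note: cell death triggered by IL-1 beta plus TNF-alpha plus IFN-gamma mixture; protective hits raise ATP signal compared with cytokine alone wells.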 In kind it is functional. As to conditions: Rattus norvegicus.
Assay [1] in a line: cells. In kind it is functional, cell-based.
Assay [2] is described as follows: cells. The assay is classed as functional, cell-based. This is another data set of the same source.
For assay [3], the target named is T1, Ubiquitin-conjugating enzyme E2 N (Homo sapiens, UniProt P61088).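 Note: Dose-response confirmation in a TR-FRET assay detecting UBC13-driven polyubiquitin chain formation, inhibition measured.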
T1 sequence (P61088 whole entry): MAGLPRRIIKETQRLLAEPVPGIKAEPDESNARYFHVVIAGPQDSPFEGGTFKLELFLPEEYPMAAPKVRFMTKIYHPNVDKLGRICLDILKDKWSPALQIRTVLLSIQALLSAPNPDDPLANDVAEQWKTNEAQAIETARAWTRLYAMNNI
The assay is classed as functional.

Assay [4] in a line: nonselective StAR promoter luciferase inhibitors – cell-based, luminescence, luciferase reporter, counter-screen for LRH-1 inverse agonist project, dose response (AID 651969). The assay is classed as functional. (In general: A reporter such as luciferase makes a cellular process visible.)
Assay [5] deals with Nuclear receptor subfamily 5 group A member 2 (Homo sapiens, UniProt O00482). In kind it is functional, cell-based.
Nuclear receptor subfamily 5 group A member 2, sequence (O00482 whole entry): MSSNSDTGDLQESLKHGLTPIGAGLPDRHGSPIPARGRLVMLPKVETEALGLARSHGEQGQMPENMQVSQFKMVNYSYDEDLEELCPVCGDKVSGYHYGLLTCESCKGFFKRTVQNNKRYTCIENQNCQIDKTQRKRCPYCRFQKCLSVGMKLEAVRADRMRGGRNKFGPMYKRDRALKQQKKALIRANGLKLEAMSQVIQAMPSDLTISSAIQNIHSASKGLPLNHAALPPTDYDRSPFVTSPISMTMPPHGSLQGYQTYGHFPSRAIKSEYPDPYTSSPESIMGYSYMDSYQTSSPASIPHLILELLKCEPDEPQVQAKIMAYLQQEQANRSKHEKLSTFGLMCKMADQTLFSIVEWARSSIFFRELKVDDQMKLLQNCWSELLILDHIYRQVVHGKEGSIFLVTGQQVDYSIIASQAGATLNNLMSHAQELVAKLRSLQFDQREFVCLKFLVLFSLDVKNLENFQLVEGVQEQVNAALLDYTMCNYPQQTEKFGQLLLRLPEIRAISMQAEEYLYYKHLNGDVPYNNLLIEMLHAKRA
The target of another assay is Steroidogenic factor 1 (Homo sapiens, UniProt Q13285). Nature of the assay: Counterscreen for inverse agonists of the liver receptor homolog-1 (LRH-1; NR5A2): Luminescence-based cell-based high throughput dose response assay to identify inverse agonists of the Steroidogenic Factor 1 Nuclear Receptor (SF1; NR5A1). In kind it is functional.
Steroidogenic factor 1, sequence (Q13285 whole entry): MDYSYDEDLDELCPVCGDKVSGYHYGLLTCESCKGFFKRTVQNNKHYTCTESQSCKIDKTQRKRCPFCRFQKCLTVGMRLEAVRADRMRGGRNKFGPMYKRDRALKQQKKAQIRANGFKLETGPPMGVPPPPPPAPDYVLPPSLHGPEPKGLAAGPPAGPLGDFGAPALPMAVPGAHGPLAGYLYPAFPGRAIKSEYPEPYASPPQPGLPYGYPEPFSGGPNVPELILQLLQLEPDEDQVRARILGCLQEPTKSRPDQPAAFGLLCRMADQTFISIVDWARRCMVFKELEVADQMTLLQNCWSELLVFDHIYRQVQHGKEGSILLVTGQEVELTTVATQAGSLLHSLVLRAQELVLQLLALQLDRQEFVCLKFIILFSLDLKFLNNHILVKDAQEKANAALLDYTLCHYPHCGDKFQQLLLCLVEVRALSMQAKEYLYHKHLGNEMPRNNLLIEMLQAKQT
Another assay concerns the target Genome polyprotein (dengue virus type 2, UniProt P29990). Nature of the assay: flavivirus cap methylation enzyme inhibition – biochemical, confirmation dose response, primary screen (AID 588689). In kind it is functional.
Another assay concerns the target T2, Aminopeptidase N (Plasmodium falciparum FcB1/Columbia, UniProt O96935).
T2 sequence (O96935 whole entry): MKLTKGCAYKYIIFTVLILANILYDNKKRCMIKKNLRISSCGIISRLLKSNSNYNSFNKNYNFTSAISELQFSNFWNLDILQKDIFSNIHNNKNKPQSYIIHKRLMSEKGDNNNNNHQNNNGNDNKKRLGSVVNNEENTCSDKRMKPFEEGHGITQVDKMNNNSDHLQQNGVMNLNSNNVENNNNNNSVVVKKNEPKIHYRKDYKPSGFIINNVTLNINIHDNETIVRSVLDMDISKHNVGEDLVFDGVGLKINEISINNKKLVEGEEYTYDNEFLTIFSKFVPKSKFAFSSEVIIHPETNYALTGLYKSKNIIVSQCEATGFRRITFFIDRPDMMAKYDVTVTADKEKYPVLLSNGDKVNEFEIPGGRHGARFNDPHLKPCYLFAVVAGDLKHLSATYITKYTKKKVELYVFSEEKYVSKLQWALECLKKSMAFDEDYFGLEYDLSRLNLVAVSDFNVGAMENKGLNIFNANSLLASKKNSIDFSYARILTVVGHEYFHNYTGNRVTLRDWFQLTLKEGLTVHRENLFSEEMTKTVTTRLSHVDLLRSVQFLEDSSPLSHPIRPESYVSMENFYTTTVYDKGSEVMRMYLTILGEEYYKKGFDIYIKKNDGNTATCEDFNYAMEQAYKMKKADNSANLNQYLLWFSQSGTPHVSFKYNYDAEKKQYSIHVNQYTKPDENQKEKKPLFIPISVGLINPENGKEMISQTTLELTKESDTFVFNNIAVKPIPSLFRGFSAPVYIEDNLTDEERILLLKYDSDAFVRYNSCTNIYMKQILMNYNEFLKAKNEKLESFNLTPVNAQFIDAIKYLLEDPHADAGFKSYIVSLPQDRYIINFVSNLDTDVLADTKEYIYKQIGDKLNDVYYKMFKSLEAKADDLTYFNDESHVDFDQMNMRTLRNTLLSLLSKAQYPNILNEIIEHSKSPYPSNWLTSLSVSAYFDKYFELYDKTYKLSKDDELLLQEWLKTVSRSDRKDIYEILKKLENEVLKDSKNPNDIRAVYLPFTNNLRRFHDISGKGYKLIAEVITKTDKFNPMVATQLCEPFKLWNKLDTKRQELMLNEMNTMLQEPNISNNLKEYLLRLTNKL
Nature of the assay: malaria alanyl aminopeptidase activity blockers – biochemical, fluorogenic H-Leu-NHMec substrate, 1536-well (AID 1445). Also noted: species or system Plasmodium falciparum 3D7, 3D7.

Assay [6] is described as follows: blockers of HIV-1 ZM109 envelope-driven cell-cell fusion – HeLa effector, CEM target cells, luciferase, cherry-pick, dose response (AID 652058).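 Note: luciferase signal from HIV-1 Env mediated cell-cell fusion of effector and target cells.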 In kind it is functional, cell-based.
Assay [7] in a line: blockers of HIV-1 envelope-mediated cell-cell fusion – cherry-pick, dose response (AID 652057). In kind it is functional, cell-based.
Assay [8] can be described thus: off-target signal loss in HeLa-CEM21 co-culture – HeLa F-luc CTL cells, cherry-picked, counter-screen for HIV-1 Env fusion inhibitor project, dose response (AID 652040).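 Note: potency for signal decrease marking cytotoxic or nonspecific inhibition.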 The assay is classed as functional, cell-based.
Assay [9] can be described thus: HIV-1 AD8 envelope cell-cell fusion blockers – cherry-pick, dose response (AID 652062).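 Note: luciferase signal from cell-cell fusion driven by HIV-1 clade B AD8 Env; potency is for inhibitors of fusion seen as a drop in luminescence.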 The assay is classed as functional, cell-based.
Assay [10] in a line: DRD fibroblast viability loss – cell-based, non-viral oncogenic, luminescence, dose response (AID 1934). In kind it is functional. As to conditions: Homo sapiens.
In assay [11] the test system is BJ. Nature of the assay: BJ-TERT fibroblast viability loss – cell-based, RAS-independent, luminescence, dose response (AID 1933). In kind it is functional. To be noted: Homo sapiens.
Assay [12] concerns BJ. Nature of the assay: cells. The assay is classed as functional, cell-based. To be noted: Homo sapiens.
Assay [13] relates to BJ. Nature of the assay: BJ-TERT-LT-ST fibroblast viability loss – cell-based, RAS-independent, luminescence, dose response (AID 1935).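 Note: BJ fibroblasts immortalized with TERT plus LT and ST oncogenes.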 In kind it is functional. As to conditions: Homo sapiens.
Assay [14] addresses T3, Replicative DNA helicase DnaB (Mycobacterium tuberculosis, UniProt P9WMR3).
T3 sequence (P9WMR3 whole entry): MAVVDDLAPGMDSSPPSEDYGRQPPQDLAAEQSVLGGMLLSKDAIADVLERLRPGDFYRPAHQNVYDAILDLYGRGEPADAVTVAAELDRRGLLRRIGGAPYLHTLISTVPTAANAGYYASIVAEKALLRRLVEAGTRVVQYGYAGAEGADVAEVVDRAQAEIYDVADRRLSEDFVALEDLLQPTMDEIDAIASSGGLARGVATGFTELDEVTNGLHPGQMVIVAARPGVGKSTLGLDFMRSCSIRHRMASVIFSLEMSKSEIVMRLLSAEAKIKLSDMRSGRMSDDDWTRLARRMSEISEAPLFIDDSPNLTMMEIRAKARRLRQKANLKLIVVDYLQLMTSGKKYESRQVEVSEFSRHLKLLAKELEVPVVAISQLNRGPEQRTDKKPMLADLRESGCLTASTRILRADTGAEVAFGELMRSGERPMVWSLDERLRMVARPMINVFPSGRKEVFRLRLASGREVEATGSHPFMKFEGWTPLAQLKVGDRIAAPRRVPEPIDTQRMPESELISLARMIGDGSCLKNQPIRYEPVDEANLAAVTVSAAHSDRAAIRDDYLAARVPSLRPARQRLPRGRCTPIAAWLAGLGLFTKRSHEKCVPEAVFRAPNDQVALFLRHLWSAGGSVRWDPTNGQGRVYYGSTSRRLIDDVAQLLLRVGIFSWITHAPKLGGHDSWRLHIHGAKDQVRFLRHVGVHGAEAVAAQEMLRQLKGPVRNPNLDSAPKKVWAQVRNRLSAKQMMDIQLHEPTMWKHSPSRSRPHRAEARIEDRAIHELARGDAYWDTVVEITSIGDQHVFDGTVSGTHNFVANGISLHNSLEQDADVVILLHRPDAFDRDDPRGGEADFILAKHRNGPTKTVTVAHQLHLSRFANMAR
Nature of the assay: DnaB intein splicing inhibitors, dose response, biochemical, cell-free fluorescence (AID 449749). In kind it is functional.

The next assay has as its target T4, Protein RecA (Mycobacterium tuberculosis, UniProt P9WHJ3).
T4 sequence (P9WHJ3 whole entry): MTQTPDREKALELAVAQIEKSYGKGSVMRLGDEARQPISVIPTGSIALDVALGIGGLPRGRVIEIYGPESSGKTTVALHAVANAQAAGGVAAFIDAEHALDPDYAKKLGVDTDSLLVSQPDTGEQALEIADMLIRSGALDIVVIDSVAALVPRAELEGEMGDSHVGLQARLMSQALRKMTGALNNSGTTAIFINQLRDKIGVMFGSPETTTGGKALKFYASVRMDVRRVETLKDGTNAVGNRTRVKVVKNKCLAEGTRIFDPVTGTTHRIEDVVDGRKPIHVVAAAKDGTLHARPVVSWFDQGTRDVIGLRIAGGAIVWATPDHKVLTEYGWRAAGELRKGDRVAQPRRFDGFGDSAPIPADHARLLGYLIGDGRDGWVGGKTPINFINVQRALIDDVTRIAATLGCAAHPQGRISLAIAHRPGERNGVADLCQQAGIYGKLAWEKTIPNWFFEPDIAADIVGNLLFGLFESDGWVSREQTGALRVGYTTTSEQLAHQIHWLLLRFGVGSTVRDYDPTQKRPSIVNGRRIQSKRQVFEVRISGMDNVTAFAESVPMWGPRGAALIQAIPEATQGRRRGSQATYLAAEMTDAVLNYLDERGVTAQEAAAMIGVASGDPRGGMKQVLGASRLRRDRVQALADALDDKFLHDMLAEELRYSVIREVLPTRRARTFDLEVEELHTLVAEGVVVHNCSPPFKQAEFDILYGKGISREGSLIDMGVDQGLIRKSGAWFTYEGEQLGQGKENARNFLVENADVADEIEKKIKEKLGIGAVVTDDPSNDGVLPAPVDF
Nature of the assay: Fluorescence Cell-Free Homogeneous Dose Retest to Identify Inhibitors of RecA-Intein Splicing Activity. [Related pubchem assays (depositor defined):AID2097, AID2223, AID489010, AID492950]. In kind it is functional.

Genome polyprotein, sequence (P29990 2492-3391 limits assumed): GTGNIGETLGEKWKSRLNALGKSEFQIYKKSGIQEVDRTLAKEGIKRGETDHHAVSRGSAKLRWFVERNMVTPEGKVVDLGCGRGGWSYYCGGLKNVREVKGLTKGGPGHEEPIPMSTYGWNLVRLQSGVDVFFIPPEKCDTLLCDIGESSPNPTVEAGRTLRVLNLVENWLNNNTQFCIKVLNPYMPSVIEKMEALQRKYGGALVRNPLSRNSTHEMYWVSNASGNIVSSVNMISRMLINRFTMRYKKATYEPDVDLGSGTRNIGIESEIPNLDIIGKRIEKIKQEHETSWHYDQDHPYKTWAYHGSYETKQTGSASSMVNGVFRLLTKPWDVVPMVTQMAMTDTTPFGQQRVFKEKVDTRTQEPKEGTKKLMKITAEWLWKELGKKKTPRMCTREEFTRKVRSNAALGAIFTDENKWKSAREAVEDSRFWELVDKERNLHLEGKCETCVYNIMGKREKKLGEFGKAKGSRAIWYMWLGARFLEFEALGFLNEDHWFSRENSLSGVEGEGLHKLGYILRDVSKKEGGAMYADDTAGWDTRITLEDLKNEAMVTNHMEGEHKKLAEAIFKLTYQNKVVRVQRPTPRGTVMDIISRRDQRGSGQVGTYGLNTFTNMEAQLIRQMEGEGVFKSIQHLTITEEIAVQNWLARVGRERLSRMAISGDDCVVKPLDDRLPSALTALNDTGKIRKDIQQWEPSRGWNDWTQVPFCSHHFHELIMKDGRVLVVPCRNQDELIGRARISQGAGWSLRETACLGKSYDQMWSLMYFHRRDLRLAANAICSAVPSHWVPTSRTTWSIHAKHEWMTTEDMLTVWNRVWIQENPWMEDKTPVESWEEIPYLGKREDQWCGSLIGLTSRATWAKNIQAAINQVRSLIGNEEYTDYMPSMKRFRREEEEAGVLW

For the compound `N#Cc1ccc(-c2csc(NNC(=O)c3ccc(Br)cc3)n2)cc1`, the AC50 in the assay with HEK293 was 8.39 µM (active); in the assay on INS1, 7.72 µM (active). The EC50 in the assay “cells [1]” and in “cells [2]” was > 350 µM (not active) throughout.

Turning to `CCOc1ccc(N2C(=O)C3C(c4ccccc4)=NN(c4ccccc4)C3C2=O)cc1` (stereo not drawn), the IC50 in [3] is > 20 µM (inactive).

Take `CC(=O)Nc1cc(-c2cccc(F)c2)cn2c(-c3ccc(S(C)(=O)=O)cc3)cnc12`: the IC50 in assay [4] was 31.1 µM (inactive); in assay [5], 5.75 µM (active); on Steroidogenic factor 1, 2.36 µM (active).

Take `O=C1/C(=C2\C(=O)N(Cc3ccc(F)cc3)c3ccccc32)SC(=S)N1CCS(=O)(=O)O`: at Genome polyprotein, the 50% inhibitory concentration (IC50) is 32.5 µM (active).

On to `Cc1nnc(SCC(=O)Nc2ccc(Br)cc2)n(N)c1=O`, for which the IC50 is 35.9 µM (inactive) in [4], 35.9 µM (inactive) in assay [5] and 20.1 µM (inactive) on Steroidogenic factor 1.

In the case of `C=CCn1c(=O)/c(=C/c2ccc(Cl)cc2)s/c1=C(\C#N)c1nnc2n1CCCCC2`, in the assay on HEK293, the AC50 is 23.9 µM (active).

For the compound `CCOc1cc(/C=N/n2nnnc2N)ccc1OCc1c(C)no[n+]1[O-]`, the IC50 is 35.9 µM (inactive) in [4], 11.8 µM (inactive) in assay [5] and 2.22 µM (active) at Steroidogenic factor 1.

For `NC(=O)CCn1c(C(=O)c2cc(Cl)c(N)c(Cl)c2)c2ccccc2[n+]1[O-]`, the IC50 in assay [3] was > 20 µM (inactive).

For the compound `Cc1nnc(SCC(=O)N2CCC(c3noc4ccc(F)cc34)CC2)s1`, the half-inhibitory concentration (IC50) at Aminopeptidase N was 39.1 µM (active). Further, in the assay on HEK293, the half-maximal activity concentration (AC50) is 9.92 µM (active).

As to `CC[C@]1(C(=O)OC)[C@H]2C(=O)N(Cc3ccccc3)C(=O)[C@H]2[C@H]2CN=C(SCc3ccc(C#N)cc3)N21`, the concentration at half-maximal activity (AC50) in [6] was 1.07 µM (active); in assay [7], 0.709 µM (active); in assay [8], 1.45 µM (active); in the assay with HEK293 it was 4.97 µM (active); in [9], 5.1 µM (active).

For the compound `CCOC(=O)c1[nH]c(C)c(C(=O)c2ccc(C)cc2)c1C`, the EC50 in assay [10] is 3.16 µM (active); in the assay with BJ [11], 3.19 µM (inconclusive); in the assay on BJ [12] it was 23.5 µM (active); in the assay on BJ [13] it was 27.4 µM (inconclusive).

As to `Cc1cccc(CN2C(=O)CSc3ccc(C(=O)NC4CC4)cc32)c1`, the IC50 in assay [4] is 20.1 µM (inactive); in [5], 1.89 µM (active); on Steroidogenic factor 1 it was 1.21 µM (active).

Consider `Cc1[nH]n(-c2ccccc2)c(=O)c1C(c1ccccc1[N+](=O)[O-])C(C#N)C#N` (stereo not drawn), for which the AC50 in assay [14] was 3.3 µM (active). Also, at Protein RecA, the EC50 is 7.28 µM (active). Further, at Genome polyprotein, the IC50 was 86.4 µM (active).

Regarding `CC[C@H](C)[C@@H](CN[C@H](C)CNC)NCCC(c1ccccc1)c1ccccc1`, in assay [3], the IC50 is > 20 µM (inactive).

On to `Cc1ccc(NC(=O)CSc2sc3c(O)cc(O)nc3c2C#N)c(F)c1`, for which the IC50 (in assay [4]; in [5]; on Steroidogenic factor 1) was 35.9 µM (inactive) throughout.
